According to article PMC6986443, “T‐495, a novel low cooperative M1 receptor positive allosteric modulator, improves memory deficits associated with cholinergic dysfunction and is characterized by low gastrointestinal side effect risk” (Pharmacology Research & Perspectives, 2020):
Where two headings read alike, the source gives them in different places.

Experiments:
[1] = tested on: IP1 production in the mouse hippocampus; experiment: In vivo IP1 assay, mouse hippocampus; details: p.o.; 3, 10, 30 mg/kg tested
Method: Eight‐week‐old Long‐Evans rats, 8‐ to 9‐week‐old C57BL/6J mice, and 22‐ or 29‐week‐old M1R KO mice and their WT littermates were used in this study. On the day of the experiment, animals were placed in individual cages and acclimated for more than 1 hour. A test compound or vehicle was administered 2 hours before the animals were sacrificed. […] LiCl (10 mmol/kg, s.c.) was injected 1 hour before sacrifice. In the repeated administration study, a test compound was administered to mice once daily for 13 days; on day 14, animals were treated with a test compound and LiCl (10 mmol/kg, s.c.) and then sacrificed. Animals were killed by decapitation, and blood was collected into tubes containing ethylenediaminetetraacetic acid for pharmacokinetic analysis; brains were quickly dissected, frozen on dry ice, and stored at −80°C until analysis. […] IP1 and protein concentrations in the diluted supernatant were measured using IP‐One HTRF assay kit (Cisbio Bioassays) and BCA Protein Assay Kit (Thermo Fisher Scientific Inc), respectively, according to the manufacturers’ instructions. IP1 production was expressed as the ratio of IP1 to protein concentrations.

[2] = tested on: IP1 production in the hippocampus, prefrontal cortex, striatum, and brainstem; experiment: In vivo IP1 assay, wild‐type and M1R KO mice; set-up: species or system mouse
Method: (§1) Eight‐week‐old Long‐Evans rats, 8‐ to 9‐week‐old C57BL/6J mice, and 22‐ or 29‐week‐old M1R KO mice and their WT littermates were used in this study. On the day of the experiment, animals were placed in individual cages and acclimated for more than 1 hour. A test compound or vehicle was administered 2 hours before the animals were sacrificed. […] LiCl (10 mmol/kg, s.c.) was injected 1 hour before sacrifice. In the repeated administration study, a test compound was administered to mice once daily for 13 days; on day 14, animals were treated with a test compound and LiCl (10 mmol/kg, s.c.) and then sacrificed. Animals were killed by decapitation, and blood was collected into tubes containing ethylenediaminetetraacetic acid for pharmacokinetic analysis; brains were quickly dissected, frozen on dry ice, and stored at −80°C until analysis. Brain tissues were homogenized in 19 (for rat tissues) or 39 (for mouse tissue) volumes of homogenization buffer (10 mmol/L HEPES pH 7.4, 50 mmol/L LiCl, 150 mmol/L NaCl, and 1% Triton X‐100), and the homogenate was incubated on a rotator for 1 hour, followed by centrifugation. The supernatant was diluted with 39 (for rat tissues) or 19 (for mouse tissues) volumes of dilution buffer (10 mmol/L HEPES pH 7.4, 50 mmol/L LiCl, and 150 mmol/L NaCl). IP1 and protein concentrations in the diluted supernatant were measured using IP‐One HTRF assay kit (Cisbio Bioassays) and BCA Protein Assay Kit (Thermo Fisher Scientific Inc), respectively, according to the manufacturers’ instructions. IP1 production was expressed as the ratio of IP1 to protein concentrations.

[3] = Concentrations in mouse plasma and brain after single and repeated treatment; type: in vivo; details: C57BL/6J, oral, mean ± SD
Method: as §1

human M1R [4] = target: T1, human M1R (Homo sapiens, UniProt P11229); experiment: [3H]‐pirenzepine binding assay (cooperativity, allosteric ternary complex model); set-up: expressed in transfected cells; details: between PAM and ACh; for Cooperativity Log α: 95% confidence intervals in parentheses
T1 sequence (P11229 1-460): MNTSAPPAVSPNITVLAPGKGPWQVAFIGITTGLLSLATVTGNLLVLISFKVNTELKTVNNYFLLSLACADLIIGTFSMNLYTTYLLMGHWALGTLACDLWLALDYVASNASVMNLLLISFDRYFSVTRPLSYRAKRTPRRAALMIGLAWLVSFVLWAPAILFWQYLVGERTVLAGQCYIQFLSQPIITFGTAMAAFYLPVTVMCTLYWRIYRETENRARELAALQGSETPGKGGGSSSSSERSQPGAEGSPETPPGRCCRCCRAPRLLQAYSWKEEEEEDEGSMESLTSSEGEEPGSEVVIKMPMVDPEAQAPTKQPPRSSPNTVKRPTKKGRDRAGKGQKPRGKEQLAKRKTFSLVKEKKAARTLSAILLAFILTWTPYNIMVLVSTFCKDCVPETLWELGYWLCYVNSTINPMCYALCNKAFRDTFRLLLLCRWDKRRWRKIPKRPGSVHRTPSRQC
Method: Cell membranes from FreeStyle 293 cells transiently expressing human M1R were incubated with T‐495 or MK‐7622 (0.1‐30 μmol/L), ACh (0.003‐3000 μmol/L), and 4 nmol/L [^3H]‐pirenzepine (PerkinElmer) in assay buffer (20 mmol/L HEPES, 100 mmol/L NaCl, 10 mmol/L MgCl2, and 0.1% fatty acid free BSA) for 2 hours at room temperature. The binding was terminated by filtration through GF/C filter plates (PerkinElmer) using a cell harvester (PerkinElmer) and five washed with 300 μL of 50 mmol/L Tris‐HCl. The GF/C plates were dried at 42°C; then, 25 μL of microscint 0 (PerkinElmer) was added. Radioactivity was counted using Topcount (PerkinElmer). Nonspecific binding was defined in the presence of 10 μmol/L atropine. To calculate the cooperativity of a PAM, the [^3H]‐pirenzepine binding assay data were fitted to the allosteric ternary complex model,35 using GraphPad Prism 5 software: Y=C/KC+αBC[B][C]/KBKC/1+A/KA+B/KB+C/KC+αAB[A][B]/KAKB+αBC[B][C]/KBKC
where Y is the fractional specific [^3H]‐pirenzepine binding; [A], [B], and [C] are the concentrations of ACh, a PAM, and [^3H]‐pirenzepine, respectively; K A, K B, and K C are the equilibrium dissociation constants of ACh, a PAM, and [^3H]‐pirenzepine, respectively; and αAB and αBC are the cooperativities between a PAM and ACh or [^3H]‐pirenzepine, respectively.

human M1R [5] = target: T1, human M1R; experiment: Ca2+ mobilization assay, agonist activity (absence of ACh), CHO‐K1 cells; type: cell-based; set-up: expressed in transfected cells; host or cells: CHO-K1; details: for margin between PAM and agonist activities: CHO‐K1 cells expressing human M1R
Method: Chinese hamster ovary (CHO)‐K1 cells expressing M1R–M5R were plated on a 96‐well black, clear bottom plate at 30 000 cells/well and incubated at 37°C in an atmosphere of 5% CO2 for 1 day. On the day of the assay, cells were incubated with calcium dye buffer (Hanks’ Balanced Salt Solution (HBSS) containing 20 mmol/L HEPES, 0.1% fatty acid‐free bovine serum albumin (BSA), 0.08% pluronic F127 (Dojindo Laboratories), 2.5 μg/mL Fluo‐4 (Dojindo Laboratories), and 1.25 mmol/L probenecid (Dojindo Laboratories)) for 30 minutes at 37°C in an atmosphere of 5% CO2 and then incubated for 30 minutes at room temperature. To measure Ca^2+ mobilization using CellLux (PerkinElmer), cells were stimulated with T‐495 or MK‐7622 (0.01‐1000 nmol/L for PAM activity; 0.3‐10 000 nmol/L for agonist activity) in assay buffer (HBSS containing 20 mmol/L HEPES and 0.1% fatty acid‐free BSA) with or without an EC20 concentration of ACh. The inflection point (IP) and EC50 values were calculated using the following equation by GraphPad Prism 5 software (GraphPad Software Inc): Y=Bottom+(Top-Bottom)/1+10^(Log IPorEC50-X×HillSlope))
where X and Y are the log concentration of a compound and the percentage of Ca^2+ response, respectively, and Top and Bottom are the upper and lower plateaus, respectively.

[6] = brain (hippocampus), 10 mg/kg, mouse hippocampus, pretreated with the compound 10 mg/kg p.o. for 13 days, 10 mg/kg p.o., read-out: Brain concentration
[7] = brain (hippocampus), 10 mg/kg, mouse hippocampus, vehicle-pretreated, 10 mg/kg p.o., read-out: Brain concentration
[8] = brain (hippocampus), 30 mg/kg, mouse hippocampus, pretreated with the compound 10 mg/kg p.o. for 13 days, 30 mg/kg p.o., read-out: Brain concentration
[9] = brain (hippocampus), 30 mg/kg, mouse hippocampus, vehicle-pretreated, 30 mg/kg p.o., read-out: Brain concentration
[10] = plasma, 10 mg/kg, pretreated with the compound 10 mg/kg p.o. for 13 days, 10 mg/kg p.o., read-out: Plasma concentration
[11] = plasma, 10 mg/kg, vehicle-pretreated, 10 mg/kg p.o., n = 10, read-out: Plasma concentration
[12] = plasma, 30 mg/kg, pretreated with the compound 10 mg/kg p.o. for 13 days, 30 mg/kg p.o., read-out: Plasma concentration
[13] = plasma, 30 mg/kg, vehicle-pretreated, 30 mg/kg p.o., n = 10, read-out: Plasma concentration

SMILES | minimum effective dose for increase of IP1 production in the mouse hippocampus [1] | IP1 production in hippocampus, prefrontal cortex, and striatum ([2]; M1R KO mice, 10 mg/kg p.o.) | IP1 production in hippocampus, prefrontal cortex, and striatum ([2]; wild‐type mice, 10 mg/kg p.o.) | concentration at 2 h [3, 6] | concentration at 2 h [3, 7] | concentration at 2 h [3, 8] | concentration at 2 h [3, 9] | concentration at 2 h [3, 10] | concentration at 2 h [3, 11] | concentration at 2 h [3, 12] | concentration at 2 h [3, 13] | Cooperativity α (human M1R [4]) | Cooperativity Log α (human M1R [4]) | EC50 (human M1R [5]) | margin between PAM and agonist activities (human M1R [5]) | IP1 production in the brainstem ([2]; M1R KO mice (and wild‐type), 20 mg/kg p.o.) | IP1 production in hippocampus, prefrontal cortex, and striatum ([2]; M1R KO mice, 20 mg/kg p.o.) | IP1 production in the brainstem ([2]; wild‐type mice, 20 mg/kg p.o.) | IP1 production in the forebrain ([2]; wild‐type mice, 20 mg/kg p.o.)
Cc1c(Cc2ccc(Cl)nc2)cc2c(c1Cl)OCN([C@H]1CCC[C@@H]1O)C2=O [T‐495, 8‐chloro‐6‐((6‐chloropyridin‐3‐yl)methyl)‐3‐((1S,2S)‐2‐hydroxycyclopentyl)‐7‐methyl‐2,3‐dihydro‐4H‐1,3‐benzoxazin‐4‐one] | 10 mg/kg | did not cause a significant increase | significantly increased | 879 ± 159 ng/g | 956 ± 122 ng/g | 4090 ± 599 ng/g | 3650 ± 744 ng/g | 1300 ± 338 ng/mL | 1150 ± 215 ng/mL | 5420 ng/mL | 4890 ± 923 ng/mL | 170 | 2.23 (2.07‐2.40) | 649 nM | 282 fold | – | – | – | –
Cc1ccc(Cc2cc3c(=O)n([C@H]4CCCC[C@@H]4O)cnc3c3ccccc23)cn1 [MK‐7622, 3‐((1S,2S)‐2‐hydroxycyclohexyl)‐6‐((6‐methylpyridin‐3‐yl)methyl)benzo[h]quinazolin‐4(3H)‐one, reference compound] | 10 mg/kg | – | – | 126 ± 28.7 ng/g | 137 ± 23.1 ng/g | 813 ± 262 ng/g | 787 ± 284 ng/g | 490 ± 86.4 ng/mL | 624 ± 61.4 ng/mL | 2430 ± 550 ng/mL | 2340 ± 518 ng/mL | 511 | 2.71 (2.48‐2.94) | 407 nM | 313 fold | slight reduction | did not cause a significant increase | slightly reduced | increased
